# Results: the supplement of paper PMC10627819
# How the values were obtained:
# S. aureus DSM 20231 [1] = assay: Bliss interaction score (quartile over a dose matrix) (fitness difference); higher = more antagonism (negative = synergy)
# Method in brief: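 The Bliss score subtracts expected fitness, the product of the single-drug fitness values, from observed fitness. Fitness is plate-normalised OD595 at entry into stationary phase, relative to the robust no-drug mean and capped at 1, with single-drug fitness inferred from combinations. Summaries are quartiles over technical, biological and donor/recipient replicates.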
# B. subtilis 168 = assay: fitness (endpoint OD595 vs no drug) (fraction); higher = more growth
# Method in brief: (§1)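 Fitness was defined as the optical density at the transition into stationary phase relative to the robust mean of no-drug control wells. Values were capped at 1. Cultures were started at OD595 0.01 in 384-well plates (30 µl, or 55 µl for S. pneumoniae) in TSB, LB Lennox or CY at 37 °C. OD595 was recorded every 30 min over 14 h, with the first reading subtracted as background.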
# S. aureus DSM 20231 [2] = assay: as above
# Method in brief: as §1
# S. aureus Newman = assay: as above
# Method in brief: as §1
# S. pneumoniae D39V = assay: as above
# Method in brief: as §1
# [3] = first compound 1 µg/mL, partner 0.15 µg/mL
# [4] = first compound 1 µg/mL, partner 0.3 µg/mL
# [5] = first compound 1 µg/mL, partner 0.6 µg/mL
# [6] = first compound 2 µg/mL, partner 0.15 µg/mL
# [7] = first compound 2 µg/mL, partner 0.3 µg/mL
# [8] = first compound 2 µg/mL, partner 0.6 µg/mL
# [9] = first compound 4 µg/mL, partner 0.15 µg/mL
# [10] = first compound 4 µg/mL, partner 0.3 µg/mL
# [11] = first compound 4 µg/mL, partner 0.6 µg/mL
# 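Wherever Bliss interaction score (quartile over a dose matrix) is given: first quartile when negative (synergy) and third quartile when positive (antagonism).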
structure (smiles),measurement,setting,value
CC[C@H]1OC(=O)[C@H](C)[C@@H](O[C@H]2C[C@@](C)(OC)[C@@H](O)[C@H](C)O2)[C@H](C)[C@@H](O[C@@H]2O[C@H](C)C[C@H](N(C)C)[C@H]2O)[C@](C)(O)C[C@@H](C)CN(C)[C@H](C)[C@@H](O)[C@]1(C)O [Azithromycin] + CN1CCN(C2=Nc3ccccc3Oc3ccc(Cl)cc32)CC1 [Loxapine],Bliss interaction score,S. aureus DSM 20231 [1],-0.147
CC[C@H]1OC(=O)[C@H](C)[C@@H](O[C@H]2C[C@@](C)(OC)[C@@H](O)[C@H](C)O2)[C@H](C)[C@@H](O[C@@H]2O[C@H](C)C[C@H](N(C)C)[C@H]2O)[C@](C)(O)C[C@@H](C)CN(C)[C@H](C)[C@@H](O)[C@]1(C)O [Azithromycin] + Cc1c(Cl)cccc1Nc1ccccc1C(=O)O [Tolfenamic],Bliss interaction score,S. aureus DSM 20231 [1],-0.292
CC[C@H]1OC(=O)[C@H](C)[C@@H](O[C@H]2C[C@@](C)(OC)[C@@H](O)[C@H](C)O2)[C@H](C)[C@@H](O[C@@H]2O[C@H](C)C[C@H](N(C)C)[C@H]2O)[C@](C)(O)C[C@@H](C)CN(C)[C@H](C)[C@@H](O)[C@]1(C)O [Azithromycin] + O=C(O)c1cc(-c2ccc(F)cc2F)ccc1O [Diflunisal],Bliss interaction score,S. aureus DSM 20231 [1],-0.146
CN(C)CCCN1c2ccccc2Sc2ccc(Cl)cc21 [Chlorpromazine] + CC(=O)NC[C@H]1CN(c2ccc(N3CCOCC3)c(F)c2)C(=O)O1 [Linezolid],Bliss interaction score,S. aureus DSM 20231 [1],-0.236
CN(C)CCCN1c2ccccc2Sc2ccc(Cl)cc21 [Chlorpromazine] + CCC[C@@H]1C[C@@H](C(=O)N[C@@H]([C@H]2O[C@H](SC)[C@H](O)[C@@H](O)[C@H]2O)[C@@H](C)O)N(C)C1 [Lincomycin],Bliss interaction score,S. aureus DSM 20231 [1],-0.233
CN(C)CCCN1c2ccccc2Sc2ccc(Cl)cc21 [Chlorpromazine] + CN(C)C(=O)C(CCN1CCC(O)(c2ccc(Cl)cc2)CC1)(c1ccccc1)c1ccccc1 [Loperamide],Bliss interaction score,S. aureus DSM 20231 [1],-0.311
CN(C)CCCN1c2ccccc2Sc2ccc(Cl)cc21 [Chlorpromazine] + CN[C@H](CC(C)C)C(=O)N[C@H]1C(=O)N[C@@H](CC(N)=O)C(=O)N[C@H]2C(=O)N[C@H]3C(=O)N[C@H](C(=O)N[C@H](C(=O)O)c4cc(O)cc(O)c4-c4cc3ccc4O)[C@H](O[C@H]3C[C@](C)(N)[C@@H](O)[C@H](C)O3)c3ccc(c(Cl)c3)Oc3cc2cc(c3O[C@@H]2O[C@H](CO)[C@@H](O)[C@H](O)[C@H]2O[C@H]2C[C@](C)(NCc3ccc(-c4ccc(Cl)cc4)cc3)[C@@H](O)[C@H](C)O2)Oc2ccc(cc2Cl)[C@H]1O [Oritavancin],Bliss interaction score,S. aureus DSM 20231 [1],-0.202
CN(C)CCCN1c2ccccc2Sc2ccc(Cl)cc21 [Chlorpromazine] + C[C@H]1c2cccc(O)c2C(=O)C2=C(O)[C@]3(O)C(=O)C(C(N)=O)=C(O)[C@@H](N(C)C)[C@@H]3[C@@H](O)[C@@H]21 [Doxycycline],Bliss interaction score,S. aureus DSM 20231 [1],-0.263
CNC(C)C1CCC(N)C(OC2C(N)CC(N)C(OC3OCC(C)(O)C(NC)C3O)C2O)O1 (stereo unspecified) [Gentamicin] + CC(C)Cc1ccc(C(C)C(=O)O)cc1 [Ibuprofen],Bliss interaction score,S. aureus DSM 20231 [1]; main component drawn,-0.442
CNC(C)C1CCC(N)C(OC2C(N)CC(N)C(OC3OCC(C)(O)C(NC)C3O)C2O)O1 (stereo unspecified) [Gentamicin] + CCCSc1nc(N[C@@H]2C[C@H]2c2ccc(F)c(F)c2)c2nnn([C@@H]3C[C@H](OCCO)[C@@H](O)[C@H]3O)c2n1 [Ticagrelor],Bliss interaction score,S. aureus DSM 20231 [1]; main component drawn,-0.576
CNC(C)C1CCC(N)C(OC2C(N)CC(N)C(OC3OCC(C)(O)C(NC)C3O)C2O)O1 (stereo unspecified) [Gentamicin] + CCCc1nc2c(C)cc(-c3nc4ccccc4n3C)cc2n1Cc1ccc(-c2ccccc2C(=O)O)cc1 [Telmisartan],Bliss interaction score,S. aureus DSM 20231 [1]; main component drawn,0.241
CNC(C)C1CCC(N)C(OC2C(N)CC(N)C(OC3OCC(C)(O)C(NC)C3O)C2O)O1 (stereo unspecified) [Gentamicin] + CC[C@H](c1ccc(O)cc1)[C@@H](CC)c1ccc(O)cc1 [Hexestrol],Bliss interaction score,S. aureus DSM 20231 [1]; main component drawn,-0.536
CNC(C)C1CCC(N)C(OC2C(N)CC(N)C(OC3OCC(C)(O)C(NC)C3O)C2O)O1 (stereo unspecified) [Gentamicin] + O=C(O)Cc1cc(I)c(Oc2ccc(O)c(I)c2)c(I)c1 [Tiratricol],Bliss interaction score,S. aureus DSM 20231 [1]; main component drawn,0.264
c1ccc2c(CC3=NCCN3)cccc2c1 [Naphazoline] + COc1cc(Cc2cnc(N)nc2N)cc(OC)c1OC [Trimethoprim],Bliss interaction score,S. aureus DSM 20231 [1],0.236
CN1CCC[C@H]1c1cccnc1 [Nicotine] + CC[C@H]1OC(=O)[C@H](C)C(=O)[C@H](C)[C@@H](O[C@@H]2O[C@H](C)C[C@H](N(C)C)[C@H]2O)[C@](C)(OC)C[C@@H](C)C(=O)[C@H](C)[C@H]2N(CCCCn3cnc(-c4cccnc4)c3)C(=O)O[C@]12C [Telithromycin],Bliss interaction score,S. aureus DSM 20231 [1],-0.342
Cc1onc(-c2ccccc2)c1C(=O)N[C@@H]1C(=O)N2[C@@H]1SC(C)(C)[C@@H]2C(=O)O [Oxacillin] + CCCSc1nc(N[C@@H]2C[C@H]2c2ccc(F)c(F)c2)c2nnn([C@@H]3C[C@H](OCCO)[C@@H](O)[C@H]3O)c2n1 [Ticagrelor],Bliss interaction score,S. aureus DSM 20231 [1],0.171
Cc1onc(-c2ccccc2)c1C(=O)N[C@@H]1C(=O)N2[C@@H]1SC(C)(C)[C@@H]2C(=O)O [Oxacillin] + Cc1c(Cl)cccc1Nc1ccccc1C(=O)O [Tolfenamic],Bliss interaction score,S. aureus DSM 20231 [1],0.138
CN(N=O)C(=O)N[C@@H](C=O)[C@@H](O)[C@H](O)[C@H](O)CO [Streptozotocin] + CCCSc1nc(N[C@@H]2C[C@H]2c2ccc(F)c(F)c2)c2nnn([C@@H]3C[C@H](OCCO)[C@@H](O)[C@H]3O)c2n1 [Ticagrelor],Bliss interaction score,S. aureus DSM 20231 [1],0.221
Cc1cc(NS(=O)(=O)c2ccc(N)cc2)no1 [Sulfamethoxazol] + CCCSc1nc(N[C@@H]2C[C@H]2c2ccc(F)c(F)c2)c2nnn([C@@H]3C[C@H](OCCO)[C@@H](O)[C@H]3O)c2n1 [Ticagrelor],Bliss interaction score,S. aureus DSM 20231 [1],0.254
Cc1cc(NS(=O)(=O)c2ccc(N)cc2)no1 [Sulfamethoxazol] + CN(N=O)C(=O)N[C@@H](C=O)[C@@H](O)[C@H](O)[C@H](O)CO [Streptozotocin],fitness,"B. subtilis 168; first compound 0.5 µg/mL, partner 0.15 µg/mL, one replicate",0.931
same,fitness,"B. subtilis 168; first compound 0.5 µg/mL, partner 0.3 µg/mL, one replicate",0.904
same,fitness,"B. subtilis 168; first compound 0.5 µg/mL, partner 0.6 µg/mL, one replicate",0.943
same,fitness,B. subtilis 168; [3],0.855
same,fitness,B. subtilis 168; [4],0.847
same,fitness,B. subtilis 168; [5],0.927
same,fitness,B. subtilis 168; [6],0.85
same,fitness,B. subtilis 168; [7],0.889
same,fitness,B. subtilis 168; [8],0.889
same,fitness,"B. subtilis 168; first compound 4 µg/mL, partner 0.15 µg/mL, one replicate",≥ 1
same,fitness,"B. subtilis 168; first compound 4 µg/mL, partner 0.3 µg/mL, one replicate",≥ 1
same,fitness,"B. subtilis 168; first compound 4 µg/mL, partner 0.6 µg/mL, one replicate",0.956
same,fitness,S. aureus DSM 20231 [2]; [3],0.794
same,fitness,S. aureus DSM 20231 [2]; [4],0.727
same,fitness,S. aureus DSM 20231 [2]; [5],0.632
same,fitness,S. aureus DSM 20231 [2]; [6],0.861
same,fitness,S. aureus DSM 20231 [2]; [7],0.735
same,fitness,S. aureus DSM 20231 [2]; [8],0.689
same,fitness,S. aureus DSM 20231 [2]; [9],0.857
same,fitness,S. aureus DSM 20231 [2]; [10],0.815
same,fitness,S. aureus DSM 20231 [2]; [11],0.689
same,fitness,S. aureus Newman; [3],0.891
same,fitness,S. aureus Newman; [4],0.754
same,fitness,S. aureus Newman; [5],0.605
same,fitness,S. aureus Newman; [6],0.868
same,fitness,S. aureus Newman; [7],0.789
same,fitness,S. aureus Newman; [8],0.587
same,fitness,S. aureus Newman; [9],0.88
same,fitness,S. aureus Newman; [10],0.798
same,fitness,S. aureus Newman; [11],0.62
same,fitness,"S. aureus Newman; first compound 8 µg/mL, partner 0.15 µg/mL, one replicate",0.854
same,fitness,"S. aureus Newman; first compound 8 µg/mL, partner 0.3 µg/mL, one replicate",0.804
same,fitness,"S. aureus Newman; first compound 8 µg/mL, partner 0.6 µg/mL, one replicate",0.751
same,fitness,"S. pneumoniae D39V; first compound 1 µg/mL, partner 1.2 µg/mL",0.939
same,fitness,"S. pneumoniae D39V; first compound 1 µg/mL, partner 2.4 µg/mL",0.94
same,fitness,"S. pneumoniae D39V; first compound 1 µg/mL, partner 4.8 µg/mL",0.935
same,fitness,"S. pneumoniae D39V; first compound 2 µg/mL, partner 1.2 µg/mL",0.944
same,fitness,"S. pneumoniae D39V; first compound 2 µg/mL, partner 2.4 µg/mL",0.942
same,fitness,"S. pneumoniae D39V; first compound 2 µg/mL, partner 4.8 µg/mL",0.953
same,fitness,"S. pneumoniae D39V; first compound 4 µg/mL, partner 1.2 µg/mL",0.911
same,fitness,"S. pneumoniae D39V; first compound 4 µg/mL, partner 2.4 µg/mL",0.899
same,fitness,"S. pneumoniae D39V; first compound 4 µg/mL, partner 4.8 µg/mL",0.917
